Experimental data reported in patent US10030016B2 (Sunesis Pharmaceuticals, Inc., priority 2009, dated 2018).
pEC50, pIC50: −log10 of the molar value.

How the values were obtained:
[1] = molecular target: PDK1 (Homo sapiens (Human), UniProt O15530); assay: PDK1 kinase assay (coupled PDK1/AKT/FAM-crosstide assay, IMAP fluorescence polarization); type: biochemical; details: inhibition of PDK1 in vitro
In short: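 Coupled cascade: 0.75 nM PDK1 (51-359) → 10 nM AKT2 (140-467-PIFtide) → 100 nM FAM-crosstide. ATP 40 μM, 25° C, 30 min. IMAP FP (ex 485/em 530), 2 h binding. ΔmP vs conc, 4-param fit.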

[2] = system: phospho-akt (Thr308) in PC-3 cells; assay: Inhibition of phospho-akt (Thr308) in PC-3 cells, MSD phospho-akt 308 ELISA kit; type: cell-based; details: Homo sapiens; inhibition of P308 Akt in PC-3 cells using MSD, 2 hours, no serum; read-out: EC50
In short: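 Phospho-Akt (Thr308) levels were measured by MSD ELISA after PC-3 cells received compound for 2 hours in serum-free medium. Controls: DMSO (high), 5 μM wortmannin (low).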

PDK1, sequence (O15530 51-359): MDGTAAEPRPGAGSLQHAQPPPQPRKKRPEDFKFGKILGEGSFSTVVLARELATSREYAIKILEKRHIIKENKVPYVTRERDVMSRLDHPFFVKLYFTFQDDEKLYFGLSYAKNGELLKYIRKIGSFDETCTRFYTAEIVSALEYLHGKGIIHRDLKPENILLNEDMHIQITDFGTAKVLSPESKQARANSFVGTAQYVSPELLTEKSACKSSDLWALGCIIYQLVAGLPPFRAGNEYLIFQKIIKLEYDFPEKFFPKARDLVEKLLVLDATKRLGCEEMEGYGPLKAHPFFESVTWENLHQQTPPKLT

SMILES	pIC50 [1]	pEC50 [2]
Nc1ncc(-c2ccc(CNc3ncc(C(F)(F)F)cc3C(=O)Nc3ccc(F)cc3)cc2)nc1O[C@H]1CCNC1 [Example 163, 2-{4-[5-Amino-6-((S)-pyrrolidin-3-yloxy)-pyrazin-2-yl]-benzylamino}-N-(4-fluoro-phenyl)-5-trifluoromethyl-nicotinamide]	> 7.00	> 6.00
C[C@H](NC(=O)c1nc(C#N)cnc1NCc1ccc(-c2cnc(N)c(O[C@H]3CCNC3)n2)cc1)c1ccc(F)c(F)c1 [Example 164, 3-{4-[5-Amino-6-((S)-pyrrolidin-3-yloxy)-pyrazin-2-yl]-benzylamino}-6-cyano-pyrazine-2-carboxylic acid [(S)-1-(3,4-difluoro-phenyl)-ethyl]-amide]	> 7.00	> 6.00
C[C@H](NC(=O)c1cc(C#N)cnc1NCc1ccc(-c2cnc(N)c(OCCN)n2)cc1)c1ccc(F)cc1 [Example 165, 2-{4-[5-Amino-6-(2-amino-ethoxy)-pyrazin-2-yl]-benzylamino}-5-cyano-N-[(S)-1-(4-fluoro-phenyl)-ethyl]-nicotinamide]	> 7.00	> 6.00
NCCOc1nc(-c2ccc(CNc3ncc(C(F)(F)F)cc3C(=O)Nc3ccc(F)cc3)cc2)cnc1N [Example 166, 2-{4-[5-Amino-6-(2-amino-ethoxy)-pyrazin-2-yl]-benzylamino}-N-(4-fluoro-phenyl)-5-trifluoromethyl-nicotinamide]	> 7.00	> 6.00
C[C@H](NC(=O)c1nc(C#N)cnc1NCc1ccc(-c2cnc(N)c(OCCN)n2)cc1)c1ccc(F)c(F)c1 [Example 167, 3-{4-[5-Amino-6-(2-amino-ethoxy)-pyrazin-2-yl]-benzylamino}-6-cyano-pyrazine-2-carboxylic acid [(S)-1-(3,4-difluoro-phenyl)-ethyl]-amide]	> 7.00	> 6.00
C[C@H](NC(=O)c1cc(C#N)cnc1NCc1ccc(-c2cnc(N)c(O[C@H]3CCC[C@@H]3N)n2)cc1)c1ccc(F)cc1 [Example 168, 2-{4-[5-Amino-6-((1S,2S)-2-amino-cyclopentyloxy)-pyrazin-2-yl]-benzylamino}-5-cyano-N-[(S)-1-(4-fluoro-phenyl)-ethyl]-nicotinamide]	> 7.00	5.00 to 6.00
C[C@H](NC(=O)c1nc(C#N)cnc1NCc1ccc(-c2cnc(N)c(O[C@H]3CCC[C@@H]3N)n2)cc1)c1ccc(F)c(F)c1 [Example 169, 3-{4-[5-Amino-6-((1S,2S)-2-amino-cyclopentyloxy)-pyrazin-2-yl]-benzylamino}-6-cyano-pyrazine-2-carboxylic acid [(S)-1-(3,4-difluoro-phenyl)-ethyl]-amide]	> 7.00	> 6.00
Nc1ncc(-c2ccc(CNc3ncc(C(F)(F)F)cc3C(=O)Nc3ccc(F)cc3)cc2)nc1O[C@H]1CCC[C@@H]1N [Example 170, 2-{4-[5-Amino-6-((1S,2S)-2-amino-cyclopentyloxy)-pyrazin-2-yl]-benzylamino}-N-(4-fluoro-phenyl)-5-trifluoromethyl-nicotinamide]	> 7.00	5.00 to 6.00
C[C@H](NC(=O)c1cc(C#N)cnc1NCc1ccc(-c2cnc(N)c(O[C@@H]3CCC[C@H]3N)n2)cc1)c1ccc(F)cc1 [Example 171, 2-{4-[5-Amino-6-((1R,2R)-2-amino-cyclopentyloxy)-pyrazin-2-yl]-benzylamino}-5-cyano-N-[(S)-1-(4-fluoro-phenyl)-ethyl]-nicotinamide]	> 7.00	5.00 to 6.00
C[C@H](NC(=O)c1nc(C#N)cnc1NCc1ccc(-c2cnc(N)c(O[C@@H]3CCC[C@H]3N)n2)cc1)c1ccc(F)c(F)c1 [Example 172, 3-{4-[5-Amino-6-((1R,2R)-2-amino-cyclopentyloxy)-pyrazin-2-yl]-benzylamino}-6-cyano-pyrazine-2-carboxylic acid [(S)-1-(3,4-difluoro-phenyl)-ethyl]-amide]	> 7.00	5.00 to 6.00
Nc1ncc(-c2ccc(CNc3ncc(C(F)(F)F)cc3C(=O)Nc3ccc(F)cc3)cc2)nc1O[C@@H]1CCC[C@H]1N [Example 173, 2-{4-[5-Amino-6-((1R,2R)-2-amino-cyclopentyloxy)-pyrazin-2-yl]-benzylamino}-N-(4-fluoro-phenyl)-5-trifluoromethyl-nicotinamide]	> 7.00	> 6.00
C[C@H](NC(=O)c1cc(C#N)cnc1NCc1ccc(-c2ccn3ncnc(N)c23)cc1)c1ccc(F)cc1 [Example 174, 2-[4-(4-Amino-pyrrolo[2,1-f][1,2,4]triazin-5-yl)-benzylamino]-5-cyano-N-[(S)-1-(4-fluoro-phenyl)-ethyl]-nicotinamide]	> 7.00	> 6.00

Further lines, results first:

pIC50 [1]	pEC50 [2]	SMILES
> 7.00	> 6.00	O=C(Nc1ccc(F)cc1)c1cc(C(F)(F)F)cnc1NCc1ccc(-c2cnc3[nH]ncc3c2)cc1 [Example 156, 2-(4-(1H-pyrazolo[3,4-b]pyridin-5-yl)benzylamino)-N-(4-fluorophenyl)-5-(trifluoromethyl)nicotinamide]
> 7.00	> 6.00	N#CCc1n[nH]c2ncc(-c3ccc(CNc4ncc(C(F)(F)F)cc4C(=O)Nc4ccc(F)cc4)cc3)cc12 [Example 157, 2-(4-(3-(cyanomethyl)-1H-pyrazolo[3,4-b]pyridin-5-yl)benzylamino)-N-(4-fluorophenyl)-5-(trifluoro-methyl)nicotinamide]
> 7.00	> 6.00	C[C@H](NC(=O)c1cc(C#N)cnc1NCc1ccc(-c2cnc(N)c(CCCN(C)C)n2)cc1)c1ccc(F)cc1 [Example 158, (S)-2-(4-(5-amino-6-(3-(dimethylamino)propyl)pyrazin-2-yl)benzylamino)-5-cyano-N-(1-(4-fluorophenyl)ethyl) nicotinamide]
> 7.00	> 6.00	Nc1ncc(-c2ccc(CNc3ncc(C(F)(F)F)cc3C(=O)Nc3ccc(F)cc3)cc2)nc1O[C@@H]1CCNC1 [Example 159, 2-{4-[5-Amino-6-((R)-pyrrolidin-3-yloxy)-pyrazin-2-yl]-benzylamino}-N-(4-fluoro-phenyl)-5-trifluoromethyl-nicotinamide]
> 7.00	> 6.00	C[C@H](NC(=O)c1cc(C#N)cnc1NCc1ccc(-c2cnc(N)c(O[C@@H]3CCNC3)n2)cc1)c1ccc(F)cc1 [Example 160, 2-{4-[5-Amino-6-((R)-pyrrolidin-3-yloxy)-pyrazin-2-yl]-benzylamino}-5-cyano-N-[(S)-1-(4-fluoro-phenyl)-ethyl]-nicotinamide]
> 7.00	> 6.00	C[C@H](NC(=O)c1nc(C#N)cnc1NCc1ccc(-c2cnc(N)c(O[C@@H]3CCNC3)n2)cc1)c1ccc(F)c(F)c1 [Example 161, 3-{4-[5-Amino-6-((R)-pyrrolidin-3-yloxy)-pyrazin-2-yl]-benzylamino}-6-cyano-pyrazine-2-carboxylic acid [(S)-1-(3,4-difluoro-phenyl)-ethyl]-amide]
> 7.00	> 6.00	C[C@H](NC(=O)c1cc(C#N)cnc1NCc1ccc(-c2cnc(N)c(O[C@H]3CCNC3)n2)cc1)c1ccc(F)cc1 [Example 162, 2-{4-[5-Amino-6-((S)-pyrrolidin-3-yloxy)-pyrazin-2-yl]-benzylamino}-5-cyano-N-[(S)-1-(4-fluoro-phenyl)-ethyl]-nicotinamide]
